The text below walks through data of ChEMBL document CHEMBL1275366, “Design, synthesis, and development of novel guaianolide-endoperoxides as potential antimalarial agents” (J Med Chem, 2010).

The test system of series [1] is Plasmodium falciparum. Description: Antiplasmodial activity against chloroquine-resistant Plasmodium falciparum W2 infected in human erythrocytes assessed as reduction in parasitaemia after 48 hrs by FACS. Type of series: functional, organism-based. The note with it: W2, 48 h.
Series [2] deals with Vero. Description: Cytotoxicity against african green monkey Vero cells at => 5000 ng/mL. Type of series: cell-based. The note with it: chlorocebus sabaeus.
Series [3] has as its system Plasmodium falciparum. Description: Antiplasmodial activity against chloroquine-resistant Plasmodium falciparum W2 infected in human erythrocytes assessed as reduction in parasitaemia up to 10 uM after 48 hrs by FACS. Type of series: functional, organism-based.
For series [4], the system named is Vero. Description: Cytotoxicity against african green monkey Vero cells at 1200 ng/mL. Type of series: cell-based. The settings on record: chlorocebus sabaeus.

Calls of active or inactive are those of the source. The rule behind the calls is not given here.

Consider `CCO[C@@H]1O[C@@H]2[C@@H]3[C@@H](C)[C@@H](OCc4ccc(OC)cc4)C[C@@H]3[C@]3(C)CC[C@]2(OO3)[C@H]1C`, for which the IC50 in the series with Plasmodium falciparum [1] was 3400 nM.
Turning to `COc1ccc(CO[C@H]2C[C@H]3[C@@H]([C@H]2C)[C@H]2OC(O)[C@H](C)[C@@]24C=C[C@]3(C)OO4)cc1` (some centres not stated), the IC50 with Plasmodium falciparum [1] was found to be 1040 nM.
On to `COc1ccc(CO[C@H]2C[C@H]3[C@@H]([C@H]2C)[C@@H](O)[C@@]2([C@@H](C)CO)C=C[C@]3(C)OO2)cc1`, for which the IC50 in the series with Plasmodium falciparum [1] was 9110 nM.
For `CCO[C@@H]1O[C@@H]2[C@@H]3[C@@H](C)[C@@H](OCc4ccc(OC)cc4)C[C@@H]3[C@]3(C)C=C[C@]2(OO3)[C@H]1C`, in the series with Plasmodium falciparum [1], the half-maximal inhibitory concentration (IC50) turned out to be 620 nM. Further, in the series on Vero [2], the Activity entry is “Non-toxic”.
Regarding `CC(=O)OC[C@H](C)[C@]12C=C[C@](C)(OO1)[C@H]1C[C@H](O)[C@H](C)[C@H]1C2=O`, in the series on Plasmodium falciparum [3], the inhibition entry was “inactive”.
As for `COc1ccc(CO[C@H]2C[C@H]3[C@@H]([C@H]2C)[C@@H](O)[C@@]2([C@@H](C)COC(C)=O)C=C[C@]3(C)OO2)cc1`, the inhibition result in the series on Plasmodium falciparum [3] was “inactive”.
`C/C=C(/C)C(=O)O[C@H]1C(C)=C2[C@H]([C@@H]1OC(=O)CCCCCCC)[C@@](C)(OC(C)=O)C[C@H](OC(=O)CCC)[C@@]1(O)[C@H]2OC(=O)[C@@]1(C)O` [THAPSIGARGIN]: the Activity entry in the series on Vero [4] is listed as “Toxic”.
On to `C[C@H]1C(=O)C[C@H]2[C@@H]1[C@H]1OC(=O)[C@H](C)[C@@]13CC[C@]2(C)OO3`, for which, in the series on Plasmodium falciparum [1], the IC50 was found to be 270 nM.
Consider `C[C@@H]1CC[C@H]2[C@@H](C)C(=O)O[C@@H]3O[C@@]4(C)CC[C@@H]1[C@]32OO4` [ARTEMISININ], for which the IC50 with Plasmodium falciparum [1] worked out at 5 nM.
For `CCO[C@H]1O[C@@H]2[C@@H]3[C@@H](C)[C@@H](OCc4ccc(OC)cc4)C[C@@H]3[C@]3(C)C=C[C@]2(OO3)[C@H]1C`, in the series on Plasmodium falciparum [1], the IC50 was 13 nM. The Activity entry with Vero [2] is given as “Non-toxic”.
Consider `CC(=O)OC[C@H](C)[C@]12C=C[C@](C)(OO1)[C@H]1C[C@H](O)[C@H](C)[C@H]1[C@H]2O`, for which the inhibition entry with Plasmodium falciparum [3] is “inactive”.
As for `COc1ccc(CO[C@H]2C[C@H]3[C@@H]([C@H]2C)[C@H]2OC[C@H](C)[C@@]24CC[C@]3(C)OO4)cc1`, the IC50 with Plasmodium falciparum [1] stood at 7500 nM.
Turning to `COc1ccc(CO[C@H]2C[C@H]3[C@@H]([C@H]2C)[C@H]2OC(O)[C@H](C)[C@@]24CC[C@]3(C)OO4)cc1` (some centres not stated), the inhibition result in the series on Plasmodium falciparum [3] is “inactive”.
`COc1ccc(CO[C@H]2C[C@H]3[C@@H]([C@H]2C)[C@H]2OC(=O)[C@H](C)[C@@]24CC[C@]3(C)OO4)cc1`: the IC50 with Plasmodium falciparum [1] is 370 nM. In addition, the Activity result with Vero [2] is recorded as “Non-toxic”.
With `CCO[C@H]1O[C@@H]2[C@@H]3[C@@H](C)[C@@H](OCc4ccc(OC)cc4)C[C@@H]3[C@]3(C)CC[C@]2(OO3)[C@H]1C`, the IC50 in the series with Plasmodium falciparum [1] is 24 nM. In addition, the Activity entry with Vero [2] is recorded as “Non-toxic”.
Turning to `C[C@@H]1[C@H]2[C@H]3OC[C@H](C)[C@@]34C=C[C@](C)(OO4)[C@H]2C[C@@H]1O`, in the series with Plasmodium falciparum [1], the half-maximal inhibitory concentration (IC50) amounted to 570 nM.
With `C[C@@H]1[C@H]2[C@@H](O)[C@@]3([C@@H](C)CO)C=C[C@](C)(OO3)[C@H]2C[C@@H]1O`, the inhibition entry in the series on Plasmodium falciparum [3] is “inactive”.
On to `C[C@@H]1[C@H]2[C@H]3OC(=O)[C@H](C)[C@@]34C=C[C@](C)(OO4)[C@H]2C[C@@H]1O`, for which, in the series on Plasmodium falciparum [1], the IC50 turned out to be 1050 nM.
Regarding `COc1ccc(CO[C@H]2C[C@H]3[C@@H]([C@H]2C)[C@H]2OC(=O)[C@H](C)[C@@]24C=C[C@]3(C)OO4)cc1`, the IC50 with Plasmodium falciparum [1] turned out to be 290 nM. Moreover, in the series with Vero [2], the Activity result is reported as “Non-toxic”.
With `CC(=O)OC[C@H](C)[C@]12C=C[C@](C)(OO1)[C@H]1CC(=O)[C@H](C)[C@H]1C2=O`, the IC50 in the series on Plasmodium falciparum [1] is 4600 nM.
The same measure, in the same setting: under `C[C@@H]1[C@H]2[C@H]3OC(=O)[C@H](C)[C@@]34CC[C@](C)(OO4)[C@H]2C[C@@H]1O` stands 610 nM.
Still for that read-out and setting: under `COc1ccc(CO[C@H]2C[C@H]3[C@@H]([C@H]2C)[C@H]2OC[C@H](C)[C@@]24C=C[C@]3(C)OO4)cc1` stands 230 nM.

Broadly, the IC50 is the point on the concentration scale where inhibition reaches its midpoint.
